From the NIST ThermoML archive (doi:10.1021/je060086x)
Numbers after ± are expanded uncertainties. One block for each compound: values may come before it.

Tests used:
[1] = excess molar enthalpy (molar enthalpy of mixing); xn = mol fraction of the nth substance listed; conditions: 298.15 K, 101 kPa, Liquid
[2] = 298.15 K; 101.33 kPa; Liquid
[3] = refractive index (Na D-line) (dimensionless); conditions: 298.15 K; 101.33 kPa; Liquid; Standard Abbe refractometry

Structure (SMILES): CC(O)CO (stereo not given) [1,2-propanediol] + CCO
- excess molar enthalpy ([1]; x1 = 0.0997): 0.0215 ± 0.00141 kcal/mol
- excess molar enthalpy ([1]; x1 = 0.1948): 0.0343 ± 0.00182 kcal/mol
- excess molar enthalpy ([1]; x1 = 0.2875): 0.042 ± 0.00206 kcal/mol
- excess molar enthalpy ([1]; x1 = 0.381): 0.0453 ± 0.00215 kcal/mol
- excess molar enthalpy ([1]; x1 = 0.4756): 0.0451 ± 0.00215 kcal/mol
- excess molar enthalpy ([1]; x1 = 0.4952): 0.0474 ± 0.00222 kcal/mol
- excess molar enthalpy ([1]; x1 = 0.5972): 0.0427 ± 0.00208 kcal/mol
- excess molar enthalpy ([1]; x1 = 0.6991): 0.0353 ± 0.00184 kcal/mol
- excess molar enthalpy ([1]; x1 = 0.8005): 0.0253 ± 0.00153 kcal/mol
- excess molar enthalpy ([1]; x1 = 0.9004): 0.0136 ± 0.00117 kcal/mol

Structure (SMILES): CC(O)CO (stereo not given) [1,2-propanediol] + CCCCO
- excess molar enthalpy ([1]; x1 = 0.1007): 0.0737 ± 0.00311 kcal/mol
- excess molar enthalpy ([1]; x1 = 0.1971): 0.114 ± 0.00454 kcal/mol
- excess molar enthalpy ([1]; x1 = 0.2945): 0.135 ± 0.00526 kcal/mol
- excess molar enthalpy ([1]; x1 = 0.3853): 0.143 ± 0.0055 kcal/mol
- excess molar enthalpy ([1]; x1 = 0.4758): 0.142 ± 0.0055 kcal/mol
- excess molar enthalpy ([1]; x1 = 0.5644): 0.133 ± 0.00526 kcal/mol
- excess molar enthalpy ([1]; x1 = 0.6047): 0.124 ± 0.00478 kcal/mol
- excess molar enthalpy ([1]; x1 = 0.7062): 0.104 ± 0.00406 kcal/mol
- excess molar enthalpy ([1]; x1 = 0.8047): 0.0773 ± 0.00335 kcal/mol
- excess molar enthalpy ([1]; x1 = 0.9026): 0.0429 ± 0.00208 kcal/mol

Structure (SMILES): CC(O)CO (stereo not given) [1,2-propanediol] + CCCCCCO
- excess molar enthalpy ([1]; x1 = 0.0905): 0.0833 ± 0.00359 kcal/mol
- excess molar enthalpy ([1]; x1 = 0.1929): 0.138 ± 0.00526 kcal/mol
- excess molar enthalpy ([1]; x1 = 0.2872): 0.165 ± 0.00621 kcal/mol
- excess molar enthalpy ([1]; x1 = 0.3828): 0.178 ± 0.00669 kcal/mol
- excess molar enthalpy ([1]; x1 = 0.4778): 0.181 ± 0.00693 kcal/mol
- excess molar enthalpy ([1]; x1 = 0.5711): 0.173 ± 0.00645 kcal/mol
- excess molar enthalpy ([1]; x1 = 0.6718): 0.157 ± 0.00598 kcal/mol
- excess molar enthalpy ([1]; x1 = 0.7021): 0.146 ± 0.00574 kcal/mol
- excess molar enthalpy ([1]; x1 = 0.7996): 0.116 ± 0.00454 kcal/mol
- excess molar enthalpy ([1]; x1 = 0.904): 0.0673 ± 0.00287 kcal/mol

Structure (SMILES): CC(O)CO (stereo not given) [1,2-propanediol] + CCCCCO
- excess molar enthalpy ([1]; x1 = 0.0914): 0.0774 ± 0.00335 kcal/mol
- excess molar enthalpy ([1]; x1 = 0.1843): 0.124 ± 0.00478 kcal/mol
- excess molar enthalpy ([1]; x1 = 0.2821): 0.15 ± 0.00574 kcal/mol
- excess molar enthalpy ([1]; x1 = 0.3755): 0.162 ± 0.00621 kcal/mol
- excess molar enthalpy ([1]; x1 = 0.4761): 0.163 ± 0.00621 kcal/mol
- excess molar enthalpy ([1]; x1 = 0.577): 0.153 ± 0.00598 kcal/mol
- excess molar enthalpy ([1]; x1 = 0.6082): 0.146 ± 0.00574 kcal/mol
- excess molar enthalpy ([1]; x1 = 0.7027): 0.126 ± 0.00502 kcal/mol
- excess molar enthalpy ([1]; x1 = 0.802): 0.0963 ± 0.00382 kcal/mol
- excess molar enthalpy ([1]; x1 = 0.9014): 0.0549 ± 0.00239 kcal/mol

Structure (SMILES): CCCCO [butan-1-ol]
- mass density [2]: 805.75 ± 0.23 kg/m3
- refractive index [3]: 1.3974 ± 0.0005

Structure (SMILES): CC(O)CO (stereo not given) [1,2-propanediol] + CCCO
- excess molar enthalpy ([1]; x1 = 0.1008): 0.0544 ± 0.00239 kcal/mol
- excess molar enthalpy ([1]; x1 = 0.201): 0.087 ± 0.00359 kcal/mol
- excess molar enthalpy ([1]; x1 = 0.3036): 0.105 ± 0.0043 kcal/mol
- excess molar enthalpy ([1]; x1 = 0.4025): 0.111 ± 0.0043 kcal/mol
- excess molar enthalpy ([1]; x1 = 0.5001): 0.107 ± 0.0043 kcal/mol
- excess molar enthalpy ([1]; x1 = 0.5049): 0.109 ± 0.0043 kcal/mol
- excess molar enthalpy ([1]; x1 = 0.6007): 0.0973 ± 0.00406 kcal/mol
- excess molar enthalpy ([1]; x1 = 0.7015): 0.0808 ± 0.00335 kcal/mol
- excess molar enthalpy ([1]; x1 = 0.8011): 0.0589 ± 0.00263 kcal/mol
- excess molar enthalpy ([1]; x1 = 0.9009): 0.0316 ± 0.00172 kcal/mol

Structure (SMILES): CC(O)CO (stereo not given) [1,2-propanediol]
- mass density [2]: 1032.61 ± 0.31 kg/m3
- refractive index [3]: 1.4323 ± 0.0005

Structure (SMILES): CCO [ethanol]
- mass density [2]: 785.15 ± 0.25 kg/m3
- refractive index [3]: 1.3595 ± 0.0005

Structure (SMILES): CC(O)CO (stereo not given) [1,2-propanediol] + CO
- excess molar enthalpy ([1]; x1 = 0.0787): -0.00605 ± 0.000932 kcal/mol
- excess molar enthalpy ([1]; x1 = 0.1565): -0.01 ± 0.00105 kcal/mol
- excess molar enthalpy ([1]; x1 = 0.2336): -0.0127 ± 0.00112 kcal/mol
- excess molar enthalpy ([1]; x1 = 0.3099): -0.0143 ± 0.0012 kcal/mol
- excess molar enthalpy ([1]; x1 = 0.3885): -0.0151 ± 0.00122 kcal/mol
- excess molar enthalpy ([1]; x1 = 0.3952): -0.014 ± 0.00117 kcal/mol
- excess molar enthalpy ([1]; x1 = 0.4998): -0.0136 ± 0.00117 kcal/mol
- excess molar enthalpy ([1]; x1 = 0.6004): -0.0124 ± 0.00112 kcal/mol
- excess molar enthalpy ([1]; x1 = 0.7015): -0.0102 ± 0.00105 kcal/mol
- excess molar enthalpy ([1]; x1 = 0.8026): -0.00743 ± 0.00098 kcal/mol
- excess molar enthalpy ([1]; x1 = 0.9): -0.00392 ± 0.00086 kcal/mol

Now from value to compound:

- mass density [2]: 786.5 ± 0.51 kg/m3
- refractive index [3]: 1.327 ± 0.0005
Structure (SMILES): CO [methanol]

- mass density [2]: 799.51 ± 0.24 kg/m3
- refractive index [3]: 1.3833 ± 0.0005
Structure (SMILES): CCCO [propan-1-ol]

- mass density [2]: 810.88 ± 0.94 kg/m3
- refractive index [3]: 1.4089 ± 0.0005
Structure (SMILES): CCCCCO [pentan-1-ol]

- mass density [2]: 815.2 ± 1.9 kg/m3
- refractive index [3]: 1.4166 ± 0.0006
Structure (SMILES): CCCCCCO [hexan-1-ol]
